Consider 2 compounds from patent US6608083B1, “Quinoline derivatives(2)” (SmithKline Beecham Farmaceutici S.p.A, priority 1994, dated 2003).

SMILES strings stand for the structures.

The target in series [1] is T1, NK3 receptor (Cavia porcellus, UniProt P30098).
T1 sequence (P30098 1-440): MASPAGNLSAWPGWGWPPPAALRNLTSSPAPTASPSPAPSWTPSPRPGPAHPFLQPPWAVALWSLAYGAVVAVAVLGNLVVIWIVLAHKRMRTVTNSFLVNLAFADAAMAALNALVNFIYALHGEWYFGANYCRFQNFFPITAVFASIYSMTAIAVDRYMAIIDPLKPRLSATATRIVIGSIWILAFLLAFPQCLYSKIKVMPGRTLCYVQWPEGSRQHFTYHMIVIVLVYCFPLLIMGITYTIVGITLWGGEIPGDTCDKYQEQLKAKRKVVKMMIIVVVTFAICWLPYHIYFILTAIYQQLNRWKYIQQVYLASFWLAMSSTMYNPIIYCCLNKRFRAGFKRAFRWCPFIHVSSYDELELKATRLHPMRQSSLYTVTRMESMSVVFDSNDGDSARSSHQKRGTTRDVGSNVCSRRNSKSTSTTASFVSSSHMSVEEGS
Nature of the series: Binding: displacement of [3H]-Senktide / [125I]-[Me-Phe7]-NKB, guinea-pig cortex membranes.
Experimental: The activity of the compounds of the present invention, as NK3 ligands, is determined by their ability to inhibit the binding of the radiolabelled NK3 ligands, [^125I]-[Me-Phe^7]-NKB or [^3H]-Senktide, to guinea-pig and human NK3 receptors (Renzetti et al, 1991, Neuropeptide, 18, 104-114; Buell et al, 1992, FEBS, 299(1), 90-95; Chung et al, 1994, Biochem. Biophys. Res. Commun., 198(3), 967-972). […] Binding assays provide for each compound tested a mean IC50 value of 2-5 separate experiments performed in duplicate or triplicate. […] The NK3-antagonist activity of the compounds of the present invention is determined by their ability to inhibit senktide-induced contraction of the guinea-pig ileum (Maggi et al, 1990, Br. J. PharmacoL, 101, 996-1000) and rabbit isolated iris sphincter muscle (Hall et al., 1991, Eur. J. PharmacoL, 199, 9-14) and human NK3 receptors-mediated Ca^++ mobilization (Mochizuki et al, 1994, J. Bio. Chem., 269, 9651-9658). Guinea-pig and rabbit in-vitro functional assays provide for each compound tested a mean KB value of 3-8 separate experiments, where KB is the concentration of the individual compound required to produce a 2-fold rightward shift in the concentration-response curve of senktide. Human receptor functional assay allows the determination of the concentration of the individual compound required to reduce by 50% (IC50 values) the Ca^++ mobilization induced by the agonist NKB.

The term melting point denotes the temperature, or range, at which the solid turns liquid. In general, Ki refers to a dissociation constant, usually derived from enzyme kinetics or from competition with a known ligand. A high value points to a looser hold on the target. Take `CCC(NC(=O)c1c(OC)c(-c2ccccc2)nc2ccccc12)c1ccccc1` (stereo not shown) [Example 47]: the melting point lay within 132 to 134 °C. The affinity in series [1], expressed as Ki, was 8.8 nM.

`CCc1c(-c2ccccc2)nc2ccccc2c1C(=O)NC(CC)c1ccccc1` (stereo not shown) [Example 48] came in with a melting point of 118 to 120 °C. The compound further registered a Ki in series [1] of 12 nM.
